Calls of active or inactive are those of the source. The calls are words filed in the database; no cut-off is given here.
Legend:
HEK293 = experiment: Antiproliferative activity against human HEK293 cells assessed as cell viability upto 50 nM incubated for 48 hrs by MTT assay; format: toxicity, cell-based; conditions: hek293, 48 h, 0.05 µM
MDA-MB-468 [1] = experiment: Antiproliferative activity against human MDA-MB-468 cells assessed as cell viability at 10 nM incubated for 48 hrs by MTT assay; format: functional, cell-based
A549 = experiment: Antiproliferative activity against human A549 cells assessed as cell viability at 10 nM incubated for 48 hrs by MTT assay; format: functional, cell-based
MDA-MB-468 [2] = experiment: Induction of ferroptosis in human MDA-MB-468 cells assessed as increase in cell viability at 25 nM incubated for 48 hrs; format: functional, cell-based

**Q.** With CCCCCCC[C@H]1CC(=O)N[C@H](Cc2ccccc2)C(=O)N[C@H]2CSSC[C@H](NC2=O)C(=O)O1 as the compound, how does the Activity (HEK293) read?
**A.** Non-toxic

**Q.** CC(C)(C)OC(=O)N[C@@H]1CSSC[C@@H](C(=O)OC(C)(C)C)NC1=O was tested. Which Activity (HEK293) did it give?
**A.** Non-toxic

**Q.** For CCCCCCC[C@@H]1CC(=O)N[C@H](CC(C)C)C(=O)N[C@H]2CSSC[C@H](NC2=O)C(=O)O1, which Activity (HEK293) is on record?
**A.** Non-toxic

**Q.** CCCCCCC[C@@H]1CC(=O)NCC(=O)N[C@H]2CSSC[C@H](NC2=O)C(=O)O1 was tested. Which Activity (HEK293) did it give?
**A.** Non-toxic

**Q.** What does the source list for O=C1C[C@@H](c2ccccc2)OC(=O)[C@@H]2CSSC[C@H](NC(=O)[C@@H](Cc3ccccc3)N1)C(=O)N2?
**A.** Activity (MDA-MB-468 [1]): Active; Activity (A549): Active; Activity (HEK293): Non-toxic

**Q.** For CCCCCCC[C@@H]1CC(=O)N[C@H](CO)C(=O)N[C@H]2CSSC[C@H](NC2=O)C(=O)O1, which Activity (HEK293) is on record?
**A.** Non-toxic

**Q.** Which Activity (MDA-MB-468 [2]) does the source give for CCOC(=O)c1ccc(NC2CCCCC2)c(N)c1 here?
**A.** Active

**Q.** Which Activity (MDA-MB-468 [1]) does the source give for CC[C@@H]1CC(=O)N[C@H](Cc2ccccc2)C(=O)N[C@H]2CSSC[C@H](NC2=O)C(=O)O1 here?
**A.** Active

**Q.** What about the Activity (A549) of the same compound?
**A.** Active

**Q.** And the Activity (HEK293)?
**A.** Non-toxic

Source: ChEMBL document CHEMBL6078706, “Deciphering the Comprehensive Structure-Activity Relationship of Sunshinamide for Breast Cancer Therapy through Dual Modulation of Apoptotic and Ferroptotic Pathways via TrxR1 and Gpx4 Inhibition” (J Med Chem, 2024)
